Results: ChEMBL document CHEMBL1201862, “PubChem BioAssay data set” (2004)
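The compound was tested at five concentrations on cells cultured in 96-well plates, with a 48-hour exposure period. At the GI50, growth is halved.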 Activity calls are given as the source filed them. No stated cut-off is given here; in the data, active = GI50 up to about 1.1 µM and inactive = higher.

How the values were obtained:
Test in all cases: NCI tumour cell line growth inhibition, 48 h
786-0 = system: 786-0
ACHN = system: ACHN
CAKI-1 = system: CAKI-1
COLO 205 = system: COLO 205
IGROV-1 = system: IGROV-1
M14 = system: M14
MOLT-4 = system: MOLT-4
Malme-3M = system: Malme-3M
NCI-H23 = system: NCI-H23
OVCAR-3 = system: OVCAR-3
OVCAR-5 = system: OVCAR-5
RXF 393 = system: RXF 393
SK-MEL-28 = system: SK-MEL-28
SK-MEL-5 = system: SK-MEL-5
SK-OV-3 = system: SK-OV-3
SNB-75 = system: SNB-75
SR = system: SR
SW-620 = system: SW-620
TK-10 = system: TK-10

SMILES | GI50 (786-0) | GI50 (ACHN) | GI50 (CAKI-1) | GI50 (COLO 205) | GI50 (IGROV-1) | GI50 (M14) | GI50 (MOLT-4) | GI50 (Malme-3M) | GI50 (NCI-H23) | GI50 (OVCAR-3) | GI50 (OVCAR-5) | GI50 (RXF 393) | GI50 (SK-MEL-28) | GI50 (SK-MEL-5) | GI50 (SK-OV-3) | GI50 (SNB-75) | GI50 (SR) | GI50 (SW-620) | GI50 (TK-10)
Cc1ccc(N2C(=O)C(=CN)C(=O)N(c3ccc(C)cc3)C2=O)cc1 | > 100 µM (inactive) | 37.9 µM (inactive) | 31.8 µM (inactive) | > 100 µM (inactive) | 71.9 µM (inactive) | > 100 µM (inactive) | > 100 µM (inactive) | 47.6 µM (inactive) | > 100 µM (inactive) | 65.9 µM (inactive) | > 100 µM (inactive) | 91.6 µM (inactive) | > 100 µM (inactive) | > 100 µM (inactive) | 19.2 µM (inactive) | 13.3 µM (inactive) | > 100 µM (inactive) | > 100 µM (inactive) | 48.4 µM (inactive)
NNC(=O)/C(NC(=O)c1ccccc1)=C(\N)c1cccc([N+](=O)[O-])c1 | > 100 µM (inactive) | > 100 µM (inactive) | > 100 µM (inactive) | > 100 µM (inactive) | > 100 µM (inactive) | > 100 µM (inactive) | 94.2 µM (inactive) | > 100 µM (inactive) | > 100 µM (inactive) | > 100 µM (inactive) | > 100 µM (inactive) | > 100 µM (inactive) | > 100 µM (inactive) | > 100 µM (inactive) | > 100 µM (inactive) | > 100 µM (inactive) | > 100 µM (inactive) | > 100 µM (inactive) | > 100 µM (inactive)
Cc1cc(C)nc(NS(=O)(=O)c2ccc(Nc3c4ccccc4nc4c(C(=O)Nc5ccc(S(=O)(=O)Nc6cc(C)on6)cc5)cccc34)cc2)n1 | 18.5 µM (inactive) | 35.2 µM (inactive) | 21.9 µM (inactive) | 17.7 µM (inactive) | 30.4 µM (inactive) | 20.8 µM (inactive) | 24.8 µM (inactive) | 24.2 µM (inactive) | 22.1 µM (inactive) | 17.7 µM (inactive) | 24.3 µM (inactive) | 20.9 µM (inactive) | 23.6 µM (inactive) | 18.7 µM (inactive) | 27.1 µM (inactive) | 32.3 µM (inactive) | 27.5 µM (inactive) | 23.4 µM (inactive) | 26.8 µM (inactive)
O=C(/C=C/c1c(O)ccc2ccccc12)c1cccc2ccccc12 | > 69.7 µM (inactive) | > 100 µM (inactive) | > 100 µM (inactive) | > 100 µM (inactive) | > 100 µM (inactive) | > 100 µM (inactive) | 51.5 µM (inactive) | > 87.5 µM (inactive) | > 100 µM (inactive) | > 100 µM (inactive) | > 100 µM (inactive) | > 100 µM (inactive) | > 100 µM (inactive) | > 100 µM (inactive) | > 100 µM (inactive) | > 52.4 µM (inactive) | 36 µM (inactive) | > 37.1 µM (inactive) | > 100 µM (inactive)
NC1=NN(c2ccccc2)C(=O)C1C(=O)C(=O)Nc1ccc(Cl)cc1 (stereo not drawn) | > 100 µM (inactive) | > 100 µM (inactive) | > 100 µM (inactive) | > 100 µM (inactive) | > 100 µM (inactive) | > 100 µM (inactive) | > 100 µM (inactive) | > 100 µM (inactive) | > 100 µM (inactive) | > 100 µM (inactive) | > 100 µM (inactive) | > 100 µM (inactive) | > 100 µM (inactive) | > 100 µM (inactive) | > 100 µM (inactive) | > 100 µM (inactive) | > 100 µM (inactive) | > 100 µM (inactive) | > 100 µM (inactive)
CC(C)c1cccc2sc(NC(=O)C(=O)C(C#N)c3cccc4ccccc34)nc12 (stereo not drawn) | > 100 µM (inactive) | 69.8 µM (inactive) | 30.5 µM (inactive) | > 100 µM (inactive) | 77.6 µM (inactive) | > 100 µM (inactive) | 23.1 µM (inactive) | 73.3 µM (inactive) | 61.5 µM (inactive) | 41.7 µM (inactive) |  | 25.2 µM (inactive) | > 100 µM (inactive) | 68.1 µM (inactive) | 48.4 µM (inactive) | 23.4 µM (inactive) | 32.4 µM (inactive) | > 100 µM (inactive) | > 100 µM (inactive)
CCC1CN2CCC3(c4ccccc4)CC(C(=O)OC)=CC1C23 (stereo not drawn) | 17.2 µM (inactive) | 16.6 µM (inactive) | 18.5 µM (inactive) | 16.9 µM (inactive) | 20.4 µM (inactive) | 14.8 µM (inactive) | 49.2 µM (inactive) | 15.9 µM (inactive) | 15.4 µM (inactive) | 19.2 µM (inactive) | 5.6 µM (inactive) | 18.3 µM (inactive) | 17.7 µM (inactive) | 16.4 µM (inactive) | 13.3 µM (inactive) | 17.3 µM (inactive) | 41.3 µM (inactive) | 16.9 µM (inactive) | 25.4 µM (inactive)
CC(C)c1cccc(C(C)C)c1NC(=O)C(=O)C1CCC2=C(Sc3ccccc3N2)C1=O (stereo not drawn) | 65.2 µM (inactive) | > 100 µM (inactive) | 64.4 µM (inactive) | 24.4 µM (inactive) | > 100 µM (inactive) | > 100 µM (inactive) | 43.7 µM (inactive) | > 100 µM (inactive) | 31.6 µM (inactive) | > 100 µM (inactive) | 41.5 µM (inactive) | > 100 µM (inactive) | > 100 µM (inactive) | 56.2 µM (inactive) | 60.8 µM (inactive) | 32.3 µM (inactive) | > 100 µM (inactive) | 12 µM (inactive) | > 100 µM (inactive)
CCC1=C(C(C)=O)[C@@H]2CCCCC[C@@H](C(=O)OC)C2C1=O (stereo partly drawn) | > 100 µM (inactive) | > 100 µM (inactive) | > 100 µM (inactive) | > 100 µM (inactive) | > 100 µM (inactive) | > 100 µM (inactive) | > 100 µM (inactive) | > 100 µM (inactive) | > 100 µM (inactive) |  | > 100 µM (inactive) | > 100 µM (inactive) | > 100 µM (inactive) | > 100 µM (inactive) | > 100 µM (inactive) | > 100 µM (inactive) | > 100 µM (inactive) | > 100 µM (inactive) | > 100 µM (inactive)
COc1ccc(/C(C=O)=C(\Cl)c2ccc(OC)c(OC)c2)cc1 |  | > 100 µM (inactive) | > 100 µM (inactive) |  | > 100 µM (inactive) | > 100 µM (inactive) | 87.3 µM (inactive) | > 100 µM (inactive) | > 100 µM (inactive) | > 100 µM (inactive) | > 100 µM (inactive) | > 100 µM (inactive) |  | > 100 µM (inactive) | 67.1 µM (inactive) | 22.6 µM (inactive) | 3.89 µM (inactive) | > 100 µM (inactive) | > 100 µM (inactive)
N#CC(Nc1cccc(C(F)(F)F)c1)c1ccccc1C(F)(F)F (stereo not drawn) |  | 14.5 µM (inactive) | 2.73 µM (inactive) | 3.26 µM (inactive) | 22.7 µM (inactive) | 7.29 µM (inactive) | 14.6 µM (inactive) | 7.33 µM (inactive) | 13.9 µM (inactive) | 6.52 µM (inactive) | 14.8 µM (inactive) | 12.2 µM (inactive) | 17.9 µM (inactive) | 18 µM (inactive) | 17.6 µM (inactive) | 18.3 µM (inactive) | 4.82 µM (inactive) | 3.08 µM (inactive) | 14.7 µM (inactive)
ClC1CCC2OOC1O2 (stereo not drawn) | > 100 µM (inactive) | > 100 µM (inactive) | > 100 µM (inactive) | > 100 µM (inactive) | > 100 µM (inactive) | > 100 µM (inactive) | > 100 µM (inactive) | > 100 µM (inactive) | > 100 µM (inactive) | > 100 µM (inactive) | > 100 µM (inactive) | > 100 µM (inactive) | > 100 µM (inactive) | > 100 µM (inactive) | > 100 µM (inactive) | 82.2 µM (inactive) | > 100 µM (inactive) | > 100 µM (inactive) | > 100 µM (inactive)
CC1=C[C@]2(O)C(=O)[C@H](C)C[C@H]3[C@@H](CC[C@@](C)(O)/C=C\2C1=O)C3(C)C | 18.9 µM (inactive) | 22.4 µM (inactive) | 25.4 µM (inactive) | 16.7 µM (inactive) | 23.4 µM (inactive) | 17.3 µM (inactive) | 17.9 µM (inactive) | 22.8 µM (inactive) | 25.6 µM (inactive) | 19.7 µM (inactive) | > 76.7 µM (inactive) | 15.4 µM (inactive) | 18.5 µM (inactive) | 21.6 µM (inactive) | > 56.8 µM (inactive) | 33.3 µM (inactive) | 16 µM (inactive) | 19.4 µM (inactive) | 32 µM (inactive)
COC1C(O)C(C)OC(O[C@@H]2C[C@H]3CC[C@@H]4[C@H](CC[C@]5(C)[C@@H](C6=CC(=O)OC6)CC[C@]45O)[C@@]3(C)[C@H](O)C2)C1O (stereo partly drawn) | 0.149 µM (active) | < 0.0212 µM (active) | 0.0225 µM (active) | 0.191 µM (active) | 0.145 µM (active) | 0.0741 µM (active) | < 0.0162 µM (active) | < 0.0396 µM (active) | 0.0262 µM (active) | < 0.0258 µM (active) | 0.114 µM (active) | < 0.0161 µM (active) | 0.216 µM (active) | < 0.0258 µM (active) | < 0.0193 µM (active) | 0.126 µM (active) | 0.0766 µM (active) | 0.0782 µM (active) | 0.0361 µM (active)
CN(Cc1cnc2nc(N)nc(N)c2n1)c1ccc(C(=O)NC(CCC(=O)O)C(=O)O)cc1 (stereo not drawn) |  | 0.0204 µM (active) | < 0.0157 µM (active) | 0.705 µM (active) | 0.082 µM (active) | 0.117 µM (active) | 0.0205 µM (active) | 7.29 µM (inactive) | 0.0792 µM (active) | 0.111 µM (active) | > 100 µM (inactive) | > 100 µM (inactive) | 1.25 µM (inactive) | 0.0661 µM (active) | 1.24 µM (inactive) | > 57 µM (inactive) | < 0.01 µM (active) | < 0.01 µM (active) | 0.869 µM (active)
